# Key:
# Test in all cases: Bromodomain Binding Assay
# Conditions in all cases: 10 μM Compound 074, read-out: Bromodomain Binding % of Control
# SMARCA4 = biological target: T1, SMARCA4 (Homo sapiens, UniProt P51532)
# T1 construct: made in house; host or cells: T7 phage grown in E. coli host derived from BL21
# BRDT BD2 = BRDT BD2 (Homo sapiens, UniProt Q58F21)
# BRD4 BD1 = BRD4 BD1 (Homo sapiens, UniProt O60885)
# BRPF1 = BRPF1 (Homo sapiens, UniProt P55201)
# Sequence of BRPF1 (P55201 628-732 limits assumed): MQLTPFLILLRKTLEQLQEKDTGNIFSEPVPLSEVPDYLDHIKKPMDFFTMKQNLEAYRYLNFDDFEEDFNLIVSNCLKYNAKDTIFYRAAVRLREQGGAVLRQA
# T1 sequence (P51532 1453-1564 limits assumed): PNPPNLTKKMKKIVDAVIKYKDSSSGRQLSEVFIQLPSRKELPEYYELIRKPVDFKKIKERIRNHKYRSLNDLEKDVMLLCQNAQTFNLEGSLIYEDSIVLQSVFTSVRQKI
structure (smiles),measurement,setting,value
"Cc1sc2c(c1C)C(c1ccc(Cl)cc1)=N[C@@H](CC(=O)N1CCC(CN3CCN(Cc4ccc(-n5c(O)nnc5-c5cc(C(C)C)c(O)cc5O)cc4)CC3)CC1)c1nnc(C)n1-2.Cl [Compound 74, (S)-2-(4-(4-chlorophenyl)-2,3,9-trimethyl-6H-thieno[3,2-f][1,2,4]triazolo[4,3-a][1,4]diazepin-6-yl)-1-(4-((4-(4-(3-(2,4-dihydroxy-5-isopropylphenyl)-5-hydroxy-4H-1,2,4-triazol-4-yl)benzyl)piperazin-1-yl)methyl)piperidin-1-yl)ethan-1-one hydrochloride]",remaining activity at 10 µM,SMARCA4,> 75%
same,remaining activity at 10 µM,BRDT BD2,< 10%
same,remaining activity at 10 µM,BRD4 BD1,< 10%
same,remaining activity at 10 µM,BRPF1,> 75%

# Source: US12540143B2, “Methods and compositions for targeted protein degradation” (Ranok Therapeutics (Hangzhou) Co. Ltd., priority 2019, dated 2026)
